Test results published in patent publication US6248712A, “Urokinase-type plasminogen activator receptor” (Cancerforskningsfondet af 1989, priority 1995, dated 2001).

Legend:
[1] = tested on: U937 cells; experiment: Fate of receptor-bound u-PA:PAI-1 complex on U937 cells; format: cell-based, human; details: 0.5 mM chloroquine
Description: Binding assay. […] The cells were then acid-treated in 50 mM glycine-HCl, 100 mM NaCl (pH 3) for 3 minutes at 4° C. and quickly neutralized with half a volume of 0.5 M Hepes, 100 mM NaCl (pH 7.4). […] Non-specific binding was determined in the presence of 100 nM unlabelled u-PA.
The basic experiment was carried out in two steps: first, labelled ligands were incubated with acid-washed cells at 4° C. for 90 minutes (step 1). […] In step 2, the cells were incubated at 37° C. for 3 hours in binding buffer containing no ligands. The amount and the state of the ligand were assayed by quantitation of the radioactivity (and the extent of TCA precipitability) at different times during step 2. To this end, both the radioactivity recovered in the cell-associated form and in the supernatant were measured.

[2] = tested on: HT-1080 cells; experiment: Formation of bound plasmin on HT-1080 cells in serum culture; format: cell-based, human; details: for Bound plasmin activity (%): 10% serum medium, Plg alone = 100%
[3] = tested on: HT-1080 cells; experiment: u-PA activity in medium of HT-1080 cultures (immunocapture assay); format: cell-based; details: Homo sapiens, control = 100%; for activity at 10 µM: TA 10 μM with Plg 40 μg/ml; for activity at 100 µM: TA 100 μM with Plg 40 μg/ml
Description: S. et al., "Enzyme-linked immunosorbent assay for human urokinase-type plasminogen activators and its proenzyme using a combination of monoclonal and polyclonal antibodies", J. […] S. et al., "Monoclonal antibodies to human 54,000 molecular weight plasminogen activator inhibitor from fibrosarcoma cells--inhibitor neutralization and one-step affinity purification", Thromb. […] The coating solution contained 2.5 μg of IgG per ml of 0.1 M sodium carbonate (pH 9.8). After rinsing, the wells were treated with conditioned medium ([…]) for 2 hours at 23° C., then rinsed again. […] The other half (controls) received 50 μl of rinsing buffer (0.05% Tween 20 in PBS). […] The cultures were incubated for the times shown before assay of cell-bound plasmin.

[4] = tested on: HT-1080 cells; experiment: Pro-u-PA index of cell-bound u-PA on HT-1080 cells in serum medium; format: cell-based, human; details: TA 100 μM with Plg 40 μg/ml and anti-PAI-1 antibody 10 μg/ml, 2 h at 37° C.
Description: Cell culture supernatants were assayed for pro-u-PA and active u-PA by the following modification of an immunocapture method (Stephens et al., 1988; Stephens et al., 1987). Microtitre wells of polystyrene immunoplates (type 269620, A/S Nunc, Roskilde, Denmark) were coated overnight at 37° C. with 50 μl of a solution of goat IgG antibodies to human u-PA (cat. # 398, American Diagnostica). The coating solution contained 2.5 μg of IgG per ml of 0.1 M sodium carbonate (pH 9.8). After rinsing, the wells were treated with conditioned medium ([…]) for 2 hours at 23° C., then rinsed again. […] This mixture was incubated for 30 minutes at 37° C., and the absorbancies of the wells were read at 405 nm. […]
Pro-u-PA and active u-PA bound to the cell layer were recovered for immunocapture assays by the same method as was used in the metabolic labelling (see above). […] For conditioned medium and cell-bound u-PA, the u-PA activity assayed after NPGB treatment was expressed as a percentage of the total activity obtained without NPGB treatment, and this percentage used as an index of pro-u-PA content (pro-u-PA index). […]

[5] = biological target: T1, plasmin (Homo sapiens, UniProt P00747); experiment: Plasmin thioesterase assay (Z-lysine thiobenzyl ester); format: biochemical; details: tranexamic acid 1 mM
[6] = biological target: T1, plasmin; experiment: Plasmin-catalysed activation of pro-u-PA in solution; format: biochemical; details: tranexamic acid 100 μM; unpublished results
[7] = tested on: HT-1080 cells; experiment: Plasmin binding to and release from HT-1080 cells; format: cell-based, human
Description: Plasmin release from HT-1080 cells into serum-free and serum-containing media. Confluent layers of HT-1080 cells were first loaded with plasmin by incubation for 1 hour at 37° C. in serum-free MEM medium (0.5 ml) containing human plasmin (0-5 μg/ml). After rinsing the cell layers three times, they were incubated for 2 hours at 37° C. with either serum-free medium (.smallcircle.--.smallcircle.), medium containing 10% heat-inactivated and plasminogen-depleted fetal calf serum (.circle-solid.--.circle-solid.), or the latter with tranexamic acid (100 μM) (.box-solid.--.box-solid.). Plasmin was then assayed in the cell-bound fraction (A) and the media (B).
In the Examples concerning plasmin binding to cells from medium, human plasmin (approximately 18 CU/mg; Kabi Diagnostica, Stockholm, Sweden) was added to the cultures at final concentrations of 0-5 μg/ml. The cells were incubated for 3 hours at 37° C. before assay of cell-bound and supernatant plasmin (see below). For plasmin release experiments, cells were loaded for 1 hour at 37° C. with 0-5 μg/ml plasmin in serum-free medium, then rinsed three times with MEM.
Plasmin bound to the cell layer was recovered and assayed as follows. […] Plasmin activity was assayed in eluate samples (50 μl) as above with an incubation time of 3 hours at 37° C.

T1 sequence (P00747 581-810 limits assumed): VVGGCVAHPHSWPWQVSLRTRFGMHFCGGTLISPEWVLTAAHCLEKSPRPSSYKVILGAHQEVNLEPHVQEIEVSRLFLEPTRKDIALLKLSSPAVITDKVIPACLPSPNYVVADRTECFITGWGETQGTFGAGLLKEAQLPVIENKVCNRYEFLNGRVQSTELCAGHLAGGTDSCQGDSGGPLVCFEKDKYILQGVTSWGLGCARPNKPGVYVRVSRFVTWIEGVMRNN
T1 sequence (P00747 97-580 limits assumed): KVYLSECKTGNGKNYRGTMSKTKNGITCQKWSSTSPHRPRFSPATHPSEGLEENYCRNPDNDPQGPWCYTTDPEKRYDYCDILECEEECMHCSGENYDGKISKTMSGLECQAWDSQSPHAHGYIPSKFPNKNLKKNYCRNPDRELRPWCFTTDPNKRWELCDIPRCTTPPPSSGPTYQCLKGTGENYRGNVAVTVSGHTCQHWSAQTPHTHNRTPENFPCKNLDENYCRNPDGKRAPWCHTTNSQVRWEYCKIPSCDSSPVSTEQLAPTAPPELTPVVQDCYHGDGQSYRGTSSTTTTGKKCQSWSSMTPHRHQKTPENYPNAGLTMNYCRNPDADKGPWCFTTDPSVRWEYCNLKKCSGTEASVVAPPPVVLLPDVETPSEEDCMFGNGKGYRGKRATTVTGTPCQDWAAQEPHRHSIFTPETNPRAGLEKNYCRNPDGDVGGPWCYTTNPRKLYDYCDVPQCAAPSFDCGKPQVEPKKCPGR

Row | Compound | Ability of the u-PA:PAI-1 complex to bind to the U937 cells [1] | Bound plasmin activity (%) ([2]; TA 10 μM with Plg 40 μg/ml, 3 h) | Bound plasmin activity (%) ([2]; TA 10 μM with Plg 40 μg/ml, 17 h) | Bound plasmin activity ([2]; TA 100 μM with Plg 40 μg/ml and anti-PAI-1 antibody 10 μg/ml, 2 h at 37° C.) | Bound plasmin activity (%) ([2]; TA 100 μM with Plg 40 μg/ml, 3 h) | Bound plasmin activity (%) ([2]; TA 100 μM with Plg 40 μg/ml, 17 h) | activity at 10 µM ([3]; 3 h) | activity at 10 µM ([3]; 17 h) | activity at 100 µM ([3]; 3 h) | activity at 100 µM ([3]; 17 h) | Pro-u-PA index (%) [4] | Effect on the thioesterase activity of plasmin [5] | Ability of plasmin to activate pro-u-PA in solution [6] | Plasmin activity recovered from plasmin-loaded cells ([7]; 1 mM tranexamic acid in 10% serum medium, 2 h at 37° C.) | Binding of plasmin to the cells ([7]; tranexamic acid 100 μM)
1 | CCN(CC)CCCC(C)Nc1ccnc2cc(Cl)ccc12 (stereo not drawn) [chloroquine] | does not affect |  |  |  |  |  |  |  |  |  |  |  |  |  | 
2 | NC[C@H]1CC[C@H](C(=O)O)CC1 [tranexamic acid] |  | 9.7% | 34% | 0 ng | 2.2% | 13% | 116% | 87% | 92% | 95% | 88% | no effect | does not affect | no plasmin activity could be recovered | completely inhibits
